The term inhibition denotes the percentage by which the read-out fell short of the control. Low values mean little suppression, high ones strong suppression.

Each structure is given as a SMILES string.

Results on two compounds are retold here after patent publication US6696268B1, “Production and use of antimicrobial agents” (Pantherix, Ltd., priority 1998, dated 2004).

One test concerns the target T1, E. coli PPAT (Escherichia coli, UniProt P0A6I6).
T1 construct: made in house; host or cells: E. coli (plasmid pUC/PPAT, pUC19 backbone)
Briefly: Assay for inhibitors of E. coli PPAT (pyrophosphate-dependent cleavage of dephosphocoenzyme A, coupled spectrophotometric assay at 340 nm). In kind it is biochemical. The note with it: test compound at 0.05 mM, 25° C., compared with control without inhibitor. The method, then:
The activity of the PPAT enzyme was assayed by monitoring the pyrophosphate dependent cleavage of dephosphocoenzyme A which produced ATP and phosphopantetheine. The reaction contains in a final volume of 1 ml: 50 mM Tris-HCl containing 2 mM tetrasodium pyrophosphate, pH 8.0; 1 mM dithiothreitol; 1 mM NADP; 2 mM MgCl2; 5 mM glucose; 9 μg yeast hexokinase; and 7 μg yeast glucose 6-phosphate dehydrogenase. Reactions were monitored spectrophotometrically at 25° C. by following the increase in absorbance at 340 nm.
Inhibition studies were carried out using the reaction conditions described above. Test compounds were added to a final concentration of 0.05 mM, and the percentage inhibition determined by comparison with a control in which no test inhibitor is present.

The test system of test [1] is dihydrofolate reductase (DHFR). The note with it: bacterial vs mammalian DHFR; competes with substrate dihydrofolate; cited from earlier work.

T1 sequence (P0A6I6 whole entry): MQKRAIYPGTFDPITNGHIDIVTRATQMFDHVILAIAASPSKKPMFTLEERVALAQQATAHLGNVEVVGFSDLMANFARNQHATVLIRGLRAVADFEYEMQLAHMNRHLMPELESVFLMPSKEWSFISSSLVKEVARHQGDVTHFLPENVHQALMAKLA

On to `O=C1CC(=O)c2ccc3c4c(ccc1c24)C(=O)CC3=O` [1,2,3,6,7,8-hexahydropyrene-1,3,6,8-tetraone], for which, on E. coli PPAT, the inhibition at 50 µM was roughly 60%.
Take `COc1cc(Cc2cnc(N)nc2N)cc(OC)c1OC` [trimethoprim]: in test [1], the “bound more tightly by bacterial than mammalian forms of DHFR” value is recorded as 50,000 fold.
